In the assay the target is T1, Human TRPC6 (Homo sapiens, UniProt Q9Y210).
T1 construct: expressed in transfected cells
T1 sequence (Q9Y210 1-931): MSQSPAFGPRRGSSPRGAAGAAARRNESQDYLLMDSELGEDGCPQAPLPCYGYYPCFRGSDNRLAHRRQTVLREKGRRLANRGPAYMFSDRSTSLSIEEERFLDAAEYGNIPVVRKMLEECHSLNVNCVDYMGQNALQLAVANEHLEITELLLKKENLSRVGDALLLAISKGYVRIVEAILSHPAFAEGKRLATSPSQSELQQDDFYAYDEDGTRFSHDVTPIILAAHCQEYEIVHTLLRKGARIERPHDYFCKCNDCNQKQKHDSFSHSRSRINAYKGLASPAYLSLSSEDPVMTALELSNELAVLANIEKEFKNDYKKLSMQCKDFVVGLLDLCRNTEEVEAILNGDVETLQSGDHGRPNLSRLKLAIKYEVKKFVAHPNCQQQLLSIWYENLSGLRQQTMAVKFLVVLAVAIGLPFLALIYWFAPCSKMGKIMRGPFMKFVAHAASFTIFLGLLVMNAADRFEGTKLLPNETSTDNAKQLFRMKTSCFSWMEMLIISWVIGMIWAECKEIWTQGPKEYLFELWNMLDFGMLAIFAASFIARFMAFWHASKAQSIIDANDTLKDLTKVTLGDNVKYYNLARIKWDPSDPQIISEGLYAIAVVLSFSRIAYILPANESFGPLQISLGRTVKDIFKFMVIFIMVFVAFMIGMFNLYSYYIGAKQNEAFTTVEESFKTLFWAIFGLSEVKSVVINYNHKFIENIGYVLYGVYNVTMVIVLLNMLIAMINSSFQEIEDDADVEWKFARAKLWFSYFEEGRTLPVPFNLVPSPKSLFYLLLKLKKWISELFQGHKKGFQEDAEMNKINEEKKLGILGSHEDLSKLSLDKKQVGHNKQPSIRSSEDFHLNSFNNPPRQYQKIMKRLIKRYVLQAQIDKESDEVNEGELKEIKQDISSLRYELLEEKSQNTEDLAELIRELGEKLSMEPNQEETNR
The experiment in a line: Evaluation of TRPC6 channel inhibitory activity (1), FLIPR Calcium 5 Assay Kit, OAG stimulation (Compound Nos. 1-1293). The following applies: Human TRPC6 stably-expressing cells, OAG 30 μM, FLIPR Calcium 5 Assay Kit; read-out: Inhibitory activity (pIC50 class) (converted). Format: cell-based. Summed up: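 Stable human TRPC6 line; fluorescent Ca2+ dye loading, then 20 min compound exposure before 30 μM OAG trigger. Peak-minus-baseline signal converted to % inhibition against untreated and unstimulated wells; potency given as pIC50 band.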

Take `Cn1nc(N2CCCC2)cc1Cc1cc(C#N)ccc1-c1ncc(CN)cn1` [compound 1210, 4-[5-(aminomethyl)pyrimidin-2-yl]-3-[(2-methyl-5-pyrrolidin-1-ylpyrazol-3-yl)methyl]benzonitrile]: the IC50 was < 10 nM.
Consider `Cn1nc(N2CCCC2)cc1Cc1cc(C#N)ccc1-c1ncc(CCN)cn1` [compound 1211, 4-[5-(2-aminoethyl)pyrimidin-2-yl]-3-[(2-methyl-5-pyrrolidin-1-ylpyrazol-3-yl)methyl]benzonitrile], for which the IC50 was < 10 nM.
For `Cn1nc(N2CCCC2)cc1Cc1cc(C#N)ccc1-c1ccc(CCN)cn1` [compound 1212, 4-[5-(2-aminoethyl)pyridin-2-yl]-3-[(2-methyl-5-pyrrolidin-1-ylpyrazol-3-yl)methyl]benzonitrile], the IC50 is < 10 nM.
Regarding `Cn1nc(N2CCCCC2)cc1Cc1cc(C#N)ccc1-c1ncc(CN)cn1` [compound 1213, 4-[5-(aminomethyl)pyrimidin-2-yl]-3-[(2-methyl-5-piperidin-1-ylpyrazol-3-yl)methyl]benzonitrile], the IC50 was 10 to 1000 nM.
Take `Cn1nc(-c2ccccn2)cc1Cc1cc(C#N)ccc1-c1ncc(CCN)cn1` [compound 1214, 4-[5-(2-aminoethyl)pyrimidin-2-yl]-3-[(2-methyl-5-pyridin-2-ylpyrazol-3-yl)methyl]benzonitrile]: the IC50 was < 10 nM.
With `Cn1nc(-c2ccccn2)cc1Cc1cc(C#N)ccc1-c1ccc(CCN)cn1` [compound 1215, 4-[5-(2-aminoethyl)pyridin-2-yl]-3-[(2-methyl-5-pyridin-2-ylpyrazol-3-yl)methyl]benzonitrile], the IC50 is < 10 nM.
Turning to `CN(C)c1cc(Cc2cc(C#N)ccc2-c2ncc(CCN)cn2)n(C)n1` [compound 1216, 4-[5-(2-aminoethyl)pyrimidin-2-yl]-3-[[5-(dimethylamino)-2-methylpyrazol-3-yl]methyl]benzonitrile], the IC50 is 10 to 1000 nM.
Then `CN(C)c1cc(Cc2cc(C#N)ccc2-c2ccc(CCN)cn2)n(C)n1` [compound 1217, 4-[5-(2-aminoethyl)pyridin-2-yl]-3-[[5-(dimethylamino)-2-methylpyrazol-3-yl]methyl]benzonitrile], with < 10 nM.
Then `Cn1nc(N2CCCCC2)cc1Cc1cc(C#N)ccc1-c1ncc(CCN)cn1` [compound 1218, 4-[5-(2-aminoethyl)pyrimidin-2-yl]-3-[(2-methyl-5-piperidin-1-ylpyrazol-3-yl)methyl]benzonitrile], with < 10 nM; and `Cn1nc(N2CCCCC2)cc1Cc1cc(C#N)ccc1-c1ccc(CCN)cn1` [compound 1219, 4-[5-(2-aminoethyl)pyridin-2-yl]-3-[(2-methyl-5-piperidin-1-ylpyrazol-3-yl)methyl]benzonitrile], with < 10 nM.
Regarding `NCCc1cnc(-c2ccc(F)cc2Cc2cnn(-c3ccccn3)c2)nc1` [compound 1220, 2-[2-[4-fluoro-2-[(1-pyridin-2-ylpyrazol-4-yl)methyl]phenyl]pyrimidin-5-yl]ethanamine], the IC50 was > 1000 nM.
Then `CC(C)Cn1cc(Cc2cc(F)ccc2-c2ccc(CCN)cn2)cn1` [compound 1221, 2-[6-[4-fluoro-2-[[1-(2-methylpropyl)pyrazol-4-yl]methyl]phenyl]pyridin-3-yl]ethanamine], with 10 to 1000 nM.
Regarding `CC(C)Cn1cc(Cc2cc(F)ccc2-c2ncc(CCN)cn2)cn1` [compound 1222, 2-[2-[4-fluoro-2-[[1-(2-methylpropyl)pyrazol-4-yl]methyl]phenyl]pyrimidin-5-yl]ethanamine], the IC50 is 10 to 1000 nM.
Take `CC(C)Cn1cc(Cc2cc(F)ccc2-c2ncc(CN)cn2)cn1` [compound 1223, [2-[4-fluoro-2-[[1-(2-methylpropyl)pyrazol-4-yl]methyl]phenyl]pyrimidin-5-yl]methanamine]: the IC50 is > 1000 nM.
For the compound `Cc1nn(CC(C)C)cc1Cc1cc(F)ccc1-c1ncc(CCN)cn1` [compound 1224, 2-[2-[4-fluoro-2-[[3-methyl-1-(2-methylpropyl)pyrazol-4-yl]methyl]phenyl]pyrimidin-5-yl]ethanamine], the IC50 was 10 to 1000 nM.
In the case of `Cc1nn(CC(C)C)cc1Cc1cc(F)ccc1-c1ncc(CN)cn1` [compound 1225, [2-[4-fluoro-2-[[3-methyl-1-(2-methylpropyl)pyrazol-4-yl]methyl]phenyl]pyrimidin-5-yl]methanamine], the IC50 was 10 to 1000 nM.
Then `C=C(c1cc(N2CCOCC2)nc(C)n1)c1cc(C#N)ccc1-c1ccc(CCN)cc1` [compound 1228, 4-[4-(2-aminoethyl)phenyl]-3-[1-(2-methyl-6-morpholin-4-ylpyrimidin-4-yl)ethenyl]benzonitrile], with 10 to 1000 nM; and `N#Cc1ccc(-c2ccc(CCN)cc2)c(C(O)c2cc(-c3ccccc3)no2)c1` (stereo not shown) [compound 1229, 4-[4-(2-aminoethyl)phenyl]-3-[hydroxy-(3-phenyl-1,2-oxazol-5-yl)methyl]benzonitrile], with 10 to 1000 nM; and `COC(c1cnc(-c2ccccc2)s1)c1cc(C#N)ccc1-c1ccc(CCN)cc1` (stereo not shown) [compound 1230, 4-[4-(2-aminoethyl)phenyl]-3-[methoxy-(2-phenyl-1,3-thiazol-5-yl)methyl]benzonitrile], with > 1000 nM.
Turning to `COC(c1cc(-c2ccccc2)no1)c1cc(C#N)ccc1-c1ccc(CCN)cc1` (stereo not shown) [compound 1231, 4-[4-(2-aminoethyl)phenyl]-3-[methoxy-(3-phenyl-1,2-oxazol-5-yl)methyl]benzonitrile], the IC50 is 10 to 1000 nM.
Then `Cn1nc(C(C)(C)C)cc1C(O)c1cc(C#N)ccc1-c1ccc(CN)cn1` (stereo not shown) [compound 1233, 4-[5-(aminomethyl)pyridin-2-yl]-3-[(5-tert-butyl-2-methylpyrazol-3-yl)-hydroxymethyl]benzonitrile], with < 10 nM.
Take `Cn1nc(C(C)(C)C)cc1C(O)c1cc(C#N)ccc1-c1ncc(CN)cn1` (stereo not shown) [compound 1234, 4-[5-(aminomethyl)pyrimidin-2-yl]-3-[(5-tert-butyl-2-methylpyrazol-3-yl)-hydroxymethyl]benzonitrile]: the IC50 was < 10 nM.
Then `Cn1nc(C(C)(C)C)cc1C(O)c1cc(C#N)ccc1-c1ncc(CCN)cn1` (stereo not shown) [compound 1235, 4-[5-(2-aminoethyl)pyrimidin-2-yl]-3-[(5-tert-butyl-2-methylpyrazol-3-yl)-hydroxymethyl]benzonitrile], with 10 to 1000 nM.
Consider `COC(c1cc(C#N)ccc1-c1ncc(CCN)cn1)c1cc(C(C)(C)C)nn1C` (stereo not shown) [compound 1236, 4-[5-(2-aminoethyl)pyrimidin-2-yl]-3-[(5-tert-butyl-2-methylpyrazol-3-yl)-methoxymethyl]benzonitrile], for which the IC50 is 10 to 1000 nM.
`N#Cc1ccc(-c2ccc(C(O)CN)cc2)c(Sc2cnnc(N3CCOCC3)c2)c1` (stereo not shown) [compound 1238, 4-[4-(2-amino-1-hydroxyethyl)phenyl]-3-(6-morpholin-4-ylpyridazin-4-yl)sulfanylbenzonitrile]: the IC50 was > 1000 nM.
For `N#Cc1ccc(-c2ccc(CCN)cc2)c(Sc2cnnc(N3CCOCC3)c2)c1` [compound 1239, 4-[4-(2-aminoethyl)phenyl]-3-(6-morpholin-4-ylpyridazin-4-yl)sulfanylbenzonitrile], the IC50 is < 10 nM.
Then `N#Cc1ccc(-c2ccc(CCN)cc2)c(Sc2cnnc(N3CCCC3)c2)c1` [compound 1241, 4-[4-(2-aminoethyl)phenyl]-3-(6-pyrrolidin-1-ylpyridazin-4-yl)sulfanylbenzonitrile], with < 10 nM; and `N#Cc1ccc(-c2ccc(CCN)cn2)c(Sc2cnnc(N3CCOCC3)c2)c1` [compound 1242, 4-[5-(2-aminoethyl)pyridin-2-yl]-3-(6-morpholin-4-ylpyridazin-4-yl)sulfanylbenzonitrile], with 10 to 1000 nM; and `N#Cc1ccc(-c2ccc(CCN)cn2)c(Sc2cnnc(N3CCCCC3)c2)c1` [compound 1243, 4-[5-(2-aminoethyl)pyridin-2-yl]-3-(6-piperidin-1-ylpyridazin-4-yl)sulfanylbenzonitrile], with < 10 nM.
As for `N#Cc1ccc(-c2ccc(CCN)cn2)c(Sc2cnnc(N3CCCC3)c2)c1` [compound 1244, 4-[5-(2-aminoethyl)pyridin-2-yl]-3-(6-pyrrolidin-1-ylpyridazin-4-yl)sulfanylbenzonitrile], the figure is < 10 nM; as for `N#Cc1ccc(-n2cc(CCN)cn2)c(Sc2cnnc(N3CCOCC3)c2)c1` [compound 1245, 4-[4-(2-aminoethyl)pyrazol-1-yl]-3-(6-morpholin-4-ylpyridazin-4-yl)sulfanylbenzonitrile], 10 to 1000 nM.

These data come from patent US20230167073A1 (Teijin Pharma Limited, priority 2020, published 2023).
